Earlier results on 1 compound are cited in patent US20210274780A1, “Disinfectant Composition Against the Novel Wuhan Corona Virus COVID-19” (priority 2020, published 2021).

The structures appear in SMILES notation.

Series [1] has as its system adenoviruses.
In series [2] the test system is polioviruses.
The subject of series [3] is Gram-positive bacteria.

Consider `[H]/N=C(\N/C(=N/[H])NCCCCCCNC(=N)NC(=N)Nc1ccc(Cl)cc1)Nc1ccc(Cl)cc1` [Chlorhexidine], for which, in series [1], the effectiveness against adenoviruses result is “ineffective”. Further, in series [2], the effectiveness against polioviruses entry is on record as “ineffective”. For the same compound, the effective concentration in series [3] is not below 1 µg/L.
